Patent US20090311217A1, “3-SUBSTITUTED-1H-INDOLE COMPOUNDS, THEIR USE AS MTOR KINASE AND PI3 KINASE INHIBITORS, AND THEIR SYNTHESES” (priority 2008, published 2009)
Read-outs that look alike come from different tables or passages of the source.

Columns and labels:
Assay type in all cases: biochemical
[1] = target: T1, human TOR (Homo sapiens, UniProt P42345); assay: mTOR enzyme assay (DELFIA, His6-S6K substrate); details: read-out: mTOR Kinase Avg. IC50
T1 construct: FLAG

[2] = target: PI3K-alpha (Homo sapiens, UniProt P42336); assay: PI3K-alpha fluorescence polarization assay; details: read-out: PI3Kα Avg. IC50
[3] = target: PI3K-gamma (Homo sapiens, UniProt P48736); assay: PI3K-gamma fluorescence polarization assay
In short: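 FP displacement read-out: 100 nM GST-GRP1 PH domain plus 5 nM BODIPY-TMR-IP4 added after EDTA stop. Preceding kinase step: 5 ng enzyme, diC8-PI(4,5)P2 2.5 μM, ATP 25 μM, MgCl2 2.5 mM, HEPES 5 mM pH 7, one hour, 25° C.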

Chain of PI3K-gamma (P48736 whole entry, species assumed, the tested form may be a part): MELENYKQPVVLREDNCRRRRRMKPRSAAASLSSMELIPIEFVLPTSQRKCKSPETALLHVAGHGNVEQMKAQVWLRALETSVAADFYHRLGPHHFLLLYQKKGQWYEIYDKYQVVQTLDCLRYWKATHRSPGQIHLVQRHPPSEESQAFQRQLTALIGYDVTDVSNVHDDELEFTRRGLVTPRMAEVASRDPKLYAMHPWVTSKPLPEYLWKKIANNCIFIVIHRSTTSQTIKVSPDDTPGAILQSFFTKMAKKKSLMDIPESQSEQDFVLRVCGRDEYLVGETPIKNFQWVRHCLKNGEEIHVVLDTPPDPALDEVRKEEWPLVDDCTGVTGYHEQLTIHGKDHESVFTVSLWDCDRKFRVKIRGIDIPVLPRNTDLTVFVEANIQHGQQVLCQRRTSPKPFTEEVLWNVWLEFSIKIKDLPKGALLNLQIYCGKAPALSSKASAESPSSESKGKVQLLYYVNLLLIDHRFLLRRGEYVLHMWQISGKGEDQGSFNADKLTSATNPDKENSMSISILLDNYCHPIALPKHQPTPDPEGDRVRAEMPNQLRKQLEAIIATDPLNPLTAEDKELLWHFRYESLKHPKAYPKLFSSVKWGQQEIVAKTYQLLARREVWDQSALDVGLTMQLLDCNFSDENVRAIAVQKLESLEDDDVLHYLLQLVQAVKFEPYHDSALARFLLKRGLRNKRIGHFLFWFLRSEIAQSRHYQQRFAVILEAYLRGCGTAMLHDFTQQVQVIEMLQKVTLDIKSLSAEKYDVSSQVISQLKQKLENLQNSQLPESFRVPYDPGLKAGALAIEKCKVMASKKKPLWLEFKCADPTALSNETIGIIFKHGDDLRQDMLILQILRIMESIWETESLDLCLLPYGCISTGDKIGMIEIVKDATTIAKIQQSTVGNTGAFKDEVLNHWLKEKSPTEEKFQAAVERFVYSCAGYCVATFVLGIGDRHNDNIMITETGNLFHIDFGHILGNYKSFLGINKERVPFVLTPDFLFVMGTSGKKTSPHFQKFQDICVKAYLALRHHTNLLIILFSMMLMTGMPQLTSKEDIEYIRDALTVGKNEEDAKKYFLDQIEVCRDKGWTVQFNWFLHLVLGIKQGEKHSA
Chain of PI3K-alpha (P42336 whole entry, species assumed): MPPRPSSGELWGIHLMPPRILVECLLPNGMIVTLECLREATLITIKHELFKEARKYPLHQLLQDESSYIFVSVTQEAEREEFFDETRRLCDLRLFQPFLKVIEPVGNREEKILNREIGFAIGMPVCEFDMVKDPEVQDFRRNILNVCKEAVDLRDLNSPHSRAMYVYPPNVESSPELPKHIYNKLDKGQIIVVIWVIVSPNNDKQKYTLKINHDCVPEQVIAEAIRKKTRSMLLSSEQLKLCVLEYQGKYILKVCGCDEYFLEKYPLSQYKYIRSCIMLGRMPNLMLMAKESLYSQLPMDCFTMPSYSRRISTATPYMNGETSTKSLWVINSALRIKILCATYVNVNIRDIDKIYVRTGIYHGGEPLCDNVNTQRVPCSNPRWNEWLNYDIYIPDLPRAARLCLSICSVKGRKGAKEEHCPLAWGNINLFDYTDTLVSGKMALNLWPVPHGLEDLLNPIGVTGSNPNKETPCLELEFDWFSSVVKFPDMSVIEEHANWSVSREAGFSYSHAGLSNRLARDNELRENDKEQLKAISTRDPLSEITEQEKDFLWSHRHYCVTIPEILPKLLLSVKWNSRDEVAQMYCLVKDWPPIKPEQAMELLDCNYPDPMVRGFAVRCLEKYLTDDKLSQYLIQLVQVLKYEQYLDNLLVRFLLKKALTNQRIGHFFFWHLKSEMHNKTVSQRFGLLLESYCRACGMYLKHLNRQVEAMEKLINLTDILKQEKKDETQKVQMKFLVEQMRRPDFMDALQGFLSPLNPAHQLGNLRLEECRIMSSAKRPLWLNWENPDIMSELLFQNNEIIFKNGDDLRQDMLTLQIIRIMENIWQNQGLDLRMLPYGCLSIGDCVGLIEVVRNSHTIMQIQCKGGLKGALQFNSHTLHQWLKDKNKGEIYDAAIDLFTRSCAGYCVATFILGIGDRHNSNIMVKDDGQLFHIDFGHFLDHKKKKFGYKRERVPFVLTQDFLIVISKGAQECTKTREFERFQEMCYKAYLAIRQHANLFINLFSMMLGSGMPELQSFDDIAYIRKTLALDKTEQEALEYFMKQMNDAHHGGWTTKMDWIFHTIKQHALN
Chain of PI3K-alpha (P27986 whole entry partner, species assumed): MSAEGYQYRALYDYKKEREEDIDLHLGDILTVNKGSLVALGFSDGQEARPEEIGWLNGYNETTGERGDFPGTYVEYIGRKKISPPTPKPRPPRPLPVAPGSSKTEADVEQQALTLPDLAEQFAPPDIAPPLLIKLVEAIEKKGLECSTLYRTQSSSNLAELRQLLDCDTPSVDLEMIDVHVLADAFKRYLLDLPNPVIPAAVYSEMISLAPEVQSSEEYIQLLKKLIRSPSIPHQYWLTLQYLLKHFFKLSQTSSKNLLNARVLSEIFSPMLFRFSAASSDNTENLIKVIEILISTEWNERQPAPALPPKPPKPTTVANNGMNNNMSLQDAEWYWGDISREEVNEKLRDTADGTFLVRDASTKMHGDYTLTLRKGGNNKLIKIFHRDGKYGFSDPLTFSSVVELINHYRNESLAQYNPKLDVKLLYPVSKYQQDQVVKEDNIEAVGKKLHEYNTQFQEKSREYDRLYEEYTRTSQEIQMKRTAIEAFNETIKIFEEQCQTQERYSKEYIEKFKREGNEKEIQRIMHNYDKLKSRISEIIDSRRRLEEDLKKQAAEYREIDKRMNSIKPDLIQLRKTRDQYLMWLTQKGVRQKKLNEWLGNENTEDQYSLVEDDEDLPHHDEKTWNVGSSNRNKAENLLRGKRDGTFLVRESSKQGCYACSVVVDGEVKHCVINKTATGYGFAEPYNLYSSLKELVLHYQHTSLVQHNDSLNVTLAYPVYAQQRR

With `Cc1[nH]c2c(Br)cccc2c1C=C1Oc2cc(O)cc(O)c2C1=O` [Example 217, 2-[(7-bromo-2-methyl-1H-indol-3-yl)methylene]-4,6-dihydroxy-1-benzofuran-3(2H)-one] the IC50 [1] was 2.4 µM and the IC50 [2] was 1.42 µM.

`COC(=O)c1cccc2c(C=C3Oc4cc(O)cc(O)c4C3=O)c[nH]c12` [Example 245, methyl 3-[(4,6-dihydroxy-3-oxo-1-benzofuran-2(3H)-ylidene)methyl]-1H-indole-7-carboxylate] was tested, and the IC50 [1] was > 20 µM and the IC50 [2] was 1.49 µM.

Work on `O=C1C(=Cc2c(-c3ccc(F)c(Cl)c3)[nH]c3ccccc23)Oc2cc(O)cc(O)c21` [Example 212, 2-{[2-(3-chloro-4-fluorophenyl)-1H-indol-3-yl]methylene}-4,6-dihydroxy-1-benzofuran-3(2H)-one] yielded an IC50 [1] of 0.64 µM and an IC50 [2] of 1.06 µM.

With `Cn1cc(C=C2Oc3ccccc3C2=O)c2ccccc21` [Example 4, 2-[(1-methyl-1H-indol-3-yl)methylene]-1-benzofuran-3(2H)-one] the IC50 [1] was > 20 µM and the IC50 [2] was 12.3 µM.

In the case of `Cc1c(C=C2Oc3cc(O)cc(O)c3C2=O)c2ccccc2n1CCCC#N` [Example 240, 4-{3-[(4,6-dihydroxy-3-oxo-1-benzofuran-2(3H)-ylidene)methyl]-2-methyl-1H-indol-1-yl}butanenitrile], the IC50 [1] is reported as 2.7 µM and the IC50 [2] is reported as 3.33 µM.

`COC(=O)c1cccc2c(C=C3Oc4cc(O)cc(O)c4C3=O)cn(C)c12` [Example 250, methyl 3-[(4,6-dihydroxy-3-oxo-1-benzofuran-2(3H)-ylidene)methyl]-1-methyl-1H-indole-7-carboxylate] was tested, and the IC50 [1] was > 20 µM and the IC50 [2] was 3.55 µM.

For `O=C1C(=Cc2c[nH]c3ccc(Br)cc23)Oc2cccc(O)c21` [Example 77, 2-[(5-bromo-1H-indol-3-yl)methylene]-4-hydroxy-1-benzofuran-3(2H)-one], the IC50 [1] was 17.5 µM and the IC50 [2] was > 10 µM.

With `COc1cccc(-c2c(C=C3Oc4cc(O)cc(O)c4C3=O)c3ccccc3n2C)c1` [Example 196, 4,6-dihydroxy-2-{[2-(3-methoxyphenyl)-1-methyl-1H-indol-3-yl]methylene}-1-benzofuran-3(2H)-one] the IC50 [1] was 0.39 µM and the IC50 [2] was 1.69 µM.

With `Cc1[nH]c2ccc(F)cc2c1C=C1Oc2cc(O)cc(O)c2C1=O` [Example 218, 2-[(5-fluoro-2-methyl-1H-indol-3-yl)methylene]-4,6-dihydroxy-1-benzofuran-3(2H)-one] the IC50 [1] was 1.65 µM and the IC50 [2] was 0.796 µM.

In the case of `N#Cc1cccc2c1c(C=C1Oc3cc(O)cc(O)c3C1=O)cn2CCN1CCOCC1` [Example 262, 3-[(4,6-dihydroxy-3-oxo-1-benzofuran-2(3H)-ylidene)methyl]-1-(2-morpholin-4-ylethyl)-1H-indole-4-carbonitrile], the IC50 [1] is reported as 0.42 µM and the IC50 [2] is reported as > 10 µM.

Compound `N#Cc1ccc2c(C=C3Oc4cc(O)cc(O)c4C3=O)c[nH]c2c1` [Example 167, 3-[(4,6-dihydroxy-3-oxo-1-benzofuran-2(3H)-ylidene)methyl]-1H-indole-6-carbonitrile] has an IC50 [1] of 5.3 µM and an IC50 [2] of 6.76 µM.

For `O=C1/C(=C/c2c[nH]c3ccc(Cl)cc23)Oc2c1ccc(O)c2O` [Example 63, (2Z)-2-[(5-chloro-1H-indol-3-yl)methylene]-6,7-dihydroxy-1-benzofuran-3(2H)-one], the IC50 [1] was > 20 µM and the IC50 [2] was 0.431 µM.

`O=C1C(=Cc2c[nH]c3c(Br)cccc23)Oc2cc(O)cc(O)c21` [Example 244, 2-[(7-bromo-1H-indol-3-yl)methylene]-4,6-dihydroxy-1-benzofuran-3(2H)-one] showed an IC50 [1] of 18 µM and an IC50 [2] of 1.96 µM.

Work on `COc1ccc(-c2[nH]c3ccccc3c2C=C2Oc3cc(O)cc(O)c3C2=O)cc1` [Example 208, 4,6-dihydroxy-2-{[2-(4-methoxyphenyl)-1H-indol-3-yl]methylene}-1-benzofuran-3(2H)-one] yielded an IC50 [1] of 0.3 µM and an IC50 [2] of 0.954 µM.

With `O=C1C(=Cc2c[nH]c3ccccc23)Oc2cc(O)ccc21` [Example 5, 6-hydroxy-2-(1H-indol-3-ylmethylene)-1-benzofuran-3(2H)-one] the IC50 [1] was > 20 µM and the IC50 [2] was > 10 µM.

In the case of `COc1ccc2[nH]cc(C=C3Oc4cc(O)cc(O)c4C3=O)c2c1C` [Example 219, 4,6-dihydroxy-2-[(5-methoxy-4-methyl-1H-indol-3-yl)methylene]-1-benzofuran-3(2H)-one], the IC50 [1] is reported as > 20 µM and the IC50 [2] is reported as 1 µM.

For `O=C1C(=Cc2c[nH]c3cc([N+](=O)[O-])ccc23)Oc2cc(O)cc(O)c21` [Example 179, 4,6-dihydroxy-2-[(6-nitro-1H-indol-3-yl)methylene]-1-benzofuran-3(2H)-one], the IC50 [1] was 16 µM and the IC50 [2] was 2.47 µM.

`Cn1cc(C=C2Oc3cc(O)cc(O)c3C2=O)c2c(Br)cccc21` [Example 253, 2-[(4-bromo-1-methyl-1H-indol-3-yl)methylene]-4,6-dihydroxy-1-benzofuran-3(2H)-one] was tested, and the IC50 [1] was 3.3 µM and the IC50 [2] was 1.43 µM.

With `COc1ccc(-c2c(C=C3Oc4cc(O)cc(O)c4C3=O)c3ccccc3n2C)cc1` [Example 195, 4,6-dihydroxy-2-{[2-(4-methoxyphenyl)-1-methyl-1H-indol-3-yl]methylene}-1-benzofuran-3(2H)-one] the IC50 [1] was 0.38 µM and the IC50 [2] was 1.03 µM.

With `Cc1ccc2[nH]cc(C=C3Oc4cc(O)cc(O)c4C3=O)c2c1` [Example 170, 4,6-dihydroxy-2-[(5-methyl-1H-indol-3-yl)methylene]-1-benzofuran-3(2H)-one] the IC50 [1] was > 20 µM and the IC50 [2] was 5.77 µM.

For `O=C1C(=Cc2c(-c3ccc(Cl)cc3)[nH]c3ccccc23)Oc2cccc(O)c21` [Example 76, 2-{[2-(4-chlorophenyl)-1H-indol-3-yl]methylene}-4-hydroxy-1-benzofuran-3(2H)-one], the IC50 [1] was 10 µM and the IC50 [2] was > 10 µM.

`CCCn1c(-c2ccccc2)c(C=C2Oc3cc(O)cc(O)c3C2=O)c2ccccc21` [Example 214, 4,6-dihydroxy-2-[(2-phenyl-1-propyl-1H-indol-3-yl)methylene]-1-benzofuran-3(2H)-one] gave an IC50 [1] of 2.55 µM and an IC50 [2] of 4.91 µM.

`O=C1C(=Cc2c[nH]c3cc(C(F)(F)F)ccc23)Oc2cc(O)cc(O)c21` [Example 221, 4,6-dihydroxy-2-{[6-(trifluoromethyl)-1H-indol-3-yl]methylene}-1-benzofuran-3(2H)-one] was tested, and the IC50 [1] was > 20 µM and the IC50 [2] was 1.16 µM.

Work on `Cn1c(-c2ccc(F)c(Cl)c2)c(C=C2Oc3cc(O)cc(O)c3C2=O)c2ccccc21` [Example 199, 2-{[2-(3-chloro-4-fluorophenyl)-1-methyl-1H-indol-3-yl]methylene}-4,6-dihydroxy-1-benzofuran-3(2H)-one] yielded an IC50 [1] of 1.4 µM and an IC50 [2] of 1.56 µM.

With `O=C1C(=Cc2c[nH]c3c([N+](=O)[O-])cccc23)Oc2cc(O)cc(O)c21` [Example 180, 4,6-dihydroxy-2-[(7-nitro-1H-indol-3-yl)methylene]-1-benzofuran-3(2H)-one] the IC50 [1] was > 20 µM and the IC50 [2] was 3.12 µM.

For `O=C1C(=Cc2c[nH]c3cccc(OCc4ccccc4)c23)Oc2cc(O)cc(O)c21` [Example 243, 2-{[4-(benzyloxy)-1H-indol-3-yl]methylene}-4,6-dihydroxy-1-benzofuran-3(2H)-one], the IC50 [1] was 0.48 µM and the IC50 [2] was 1.05 µM.

Compound `CNC(=O)Nc1ccc2c(c1)C(=O)/C(=C/c1c[nH]c3c(C#N)cc(OC)cc13)O2` [Compound 595, 1-{(2Z)-2-[(7-cyano-5-methoxy-1H-indol-3-yl)methylene]-3-oxo-2,3-dihydro-1-benzofuran-5-yl}-3-methylurea] has an IC50 ([3]; PI3Kγ Avg. IC50) of 1.53 µM and an IC50 [2] of 0.222 µM.

`Cc1cccc2c1c(/C=C1\Oc3cc(O)cc(O)c3C1=O)c(-c1ccccc1)n2C` [Compound 476, (2Z)-2-[(1,4-dimethyl-2-phenyl-1H-indol-3-yl)methylene]-4,6-dihydroxy-1-benzofuran-3(2H)-one] was tested, and the IC50 ([3]; PI3Kγ Avg. IC50) was 1.64 µM and the IC50 [2] was 0.412 µM.

For `COc1ccc2c(c1)c(/C=C1\Oc3ccc(NC(=O)NC4CNC4)cc3C1=O)cn2CCN1CCN(C)CC1` [Compound 552, 1-azetidin-3-yl-3-[(2Z)-2-({5-methoxy-1-[2-(4-methylpiperazin-1-yl)ethyl]-1Hindol-3-yl}methylene)-3-oxo-2,3-dihydro-1-benzofuran-5-yl]urea], the IC50 ([3]; PI3Kγ Avg. IC50) was > 10 µM and the IC50 [2] was 0.355 µM.

Compound `COc1ccc2c(c1)c(/C=C1\Oc3ccc(NC(=O)NCCCN)cc3C1=O)cn2CCN1CCN(C)CC1` [Compound 566, 1-(3-aminopropyl)-3-[(2Z)-2-({5-methoxy-1-[2-(4-methylpiperazin-1-yl)ethyl]-1Hindol-3-yl}methylene)-3-oxo-2,3-dihydro-1-benzofuran-5-yl]urea] has an IC50 ([3]; PI3Kγ Avg. IC50) of 7.79 µM and an IC50 [2] of 0.0935 µM.

In the case of `Cn1cc(/C=C2\Oc3ccc(NC(=O)Nc4cccnc4)cc3C2=O)c2c(-c3ccccc3)cccc21` [Compound 535, 1-{(2Z)-2-[(1-methyl-4-phenyl-1H-indol-3-yl)methylene]-3-oxo-2,3-dihydro-1-benzofuran-5-yl}-3-pyridin-3-ylurea], the IC50 ([3]; PI3Kγ Avg. IC50) is reported as > 10 µM and the IC50 [2] is reported as > 10 µM.

“6,7-dihydroxy-2-({5-methoxy-2-methyl-1-[4-(4-methylpiperazin-1-yl)butyl]-1H-indol-3-yl}methylene)-1-benzofuran-3(2H)-one [Example 132]” showed an IC50 ([3]; read-out: PI3Kγ Avg. IC50) of 4.15 µM and an IC50 [2] of 0.337 µM.

Work on “4-hydroxy-2-({5-methoxy-2-methyl-1-[2-(4-methylpiperazin-1-yl)ethyl]-1H-indol-3-yl}methylene)-1-benzofuran-3(2H)-one [Example 129]” yielded an IC50 ([3]; read-out: PI3Kγ Avg. IC50) of 4.5 µM and an IC50 [2] of 0.488 µM.

`CCc1cc(O)cc2c1C(=O)C(=Cc1c[nH]c3ccc(OC)cc13)O2` [Compound 506, 4-ethyl-6-hydroxy-2-[(5-methoxy-1H-indol-3-yl)methylene]-1-benzofuran-3(2H)-one] was tested, and the IC50 ([3]; PI3Kγ Avg. IC50) was 1.51 µM and the IC50 [2] was 0.133 µM.
